In patent publication US20150374815A1, “METHODS AND COMPOSITIONS FOR TREATMENT WITH SYNTHETIC NANOCARRIERS AND IMMUNE CHECKPOINT INHIBITORS” (Selecta Biosciences, Inc., priority 2014, published 2015):
Entries after “also recorded” stand apart in the source; their conditions may differ.

Columns and labels:
IL-6 = test: Serum cytokine induction after NC-CpG or free CpG inoculation (ELISA); format: in vivo; settings: s.c.; 100 μg NC-CpG (containing 5% CpG-1826) or 5 μg free CpG-1826; pooled sera, 3/group; FIG. 4
Protocol: (§1) TNF-α and IL-6 were induced in sera of NC-CpG- and free CpG-inoculated animals. Animal groups were inoculated (s.c.) either with 100 μg of NC-CpG (containing 5% CpG-1826) or with 5 μg of free CpG-1826. At different time-points post inoculation serum was collected from the animals (3/group) by terminal bleed, pooled and assayed for cytokine presence in ELISA (BD).

TNF-α = test: as above; format: in vivo; settings: s.c.; 100 μg NC-CpG (containing 5% CpG-1826) or 5 μg free CpG-1826; pooled sera, 3/group; FIG. 4
Protocol: as §1

5′-TCCATGACGTTCCTGACGTT-3′ [free CpG]
induction of IL-6 in serum (IL-6): induced; also recorded: substantially higher induction
induction of TNF-α in serum (TNF-α): induced; also recorded: substantially higher induction
